# PubChem BioAssay (NCI)
#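 A five-concentration, 48-hour dose response in 96-well plates underlies each endpoint, interpolated linearly between surrounding concentrations. GI50: concentration for 50% inhibition of growth. TGI is the concentration that stops growth completely.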
# System: OVCAR-3 ovarian
# Assay: growth of human tumour cells (NCI), 48 h
SMILES,TGI,GI50
C=C1C(=O)OC2C1CC(OC(C)=O)/C(C)=C/CCC1(C)OC21 (centres undefined),> 100 µM,
COc1cc(/C=C/C(=O)C(C(=O)/C=C/c2ccc(OC(=O)CCNC34CC5CC(CC(C5)C3)C4)c(OC)c2)C(=O)CCNC23CC4CC(CC(C4)C2)C3)ccc1OC(=O)CCNC12CC3CC(CC(C3)C1)C2 (centres undefined),> 100 µM,4.98 µM
O=C1C2[C@@H](C(=O)N1c1ccc(Br)cc1)C13C(=CC2([N+](=O)[O-])[C@@H]2C(=O)N(c4ccc(Br)cc4)C(=O)[C@@H]21)c1ccccc1N3c1ccccc1 (some centres undefined),> 100 µM,
O=C1/C(=C/N2N=C(c3ccc4ccccc4c3)CC2c2ccccc2O)SC(=S)N1c1cccnc1 (centres undefined),38.5 µM,0.571 µM
CCOC(=O)C1=C(Nc2ccc(Br)cc2)OCC1=O,> 100 µM,
CCOc1ccc(N=Cc2c3ccccc3nc3ccccc23)cc1,> 100 µM,
Nc1ccc(C2=N/C(=C\c3cccc(N)c3)C(=O)O2)cc1,> 100 µM,
CC(=O)[CH-]C(=O)c1ccccc1.CC(=O)[CH-]C(=O)c1ccccc1.O=S(=O)([O-])c1cc([O-])c2c([O-])cc(S(=O)(=O)[O-])cc2c1.[Na+].[Ti+4],> 100 µM,> 100 µM
Cc1cc(NCCCCNc2ccnc3cc(Cl)ccc23)nc(Nc2ccc(C(=O)N3CCCCC3)cc2)n1,3.44 µM,1.7 µM
NCCN.O=C([O-])[O-].O=C([O-])[O-].[Co+3].[K+],> 100 µM,> 100 µM
C1=NC(N(Cc2ccccc2)Cc2ccccc2)N(Cc2ccccc2)N1 (centres undefined),27.3 µM,
NC(=O)CNc1ccc([As]=[As]c2ccc(NCC(N)=O)cc2)cc1 (centres undefined),6.14 µM,2.1 µM

# System: RXF 393 renal
# Assay: growth of human tumour cells (NCI), 48 h
SMILES,TGI,GI50
Cc1ccc(N2C(=O)N(c3ccc(C)cc3)C3(SC=NN3C)C2=O)cc1 (centres undefined),> 100 µM,
O=C1c2ccc3c4ccccc4n(-c4ccccc4)c3c2C(=O)N1c1ccc(Cl)cc1,> 100 µM,
Cc1ccc2c(c1-c1ccccc1)C(=O)OC2,> 100 µM,
CCC[CH2][Sn]1([CH2]CCC)[O]CC(COc2c(Cl)cc(Cl)cc2Cl)[O]1 (centres undefined),2.73 µM,1.27 µM
NC(CCc1ncc(C(=O)O)s1)C(=O)O (centres undefined),> 100 µM,
COC(=O)C(=O)CC(=O)c1cccc(OC)c1,> 100 µM,
COc1cc2c3c(n(CCCN(CCO)CCO)c(=O)c2cc1OC)-c1cc2c(cc1C3=O)OCO2,> 100 µM,4.46 µM
CNCCn1c(=O)c2cc(OC)c(OC)cc2c2cnc3cc4c(cc3c21)OCO4,0.0352 µM,< 0.01 µM
COc1cc(-c2nnc3n2NC=C(C(=O)O)S3)cc(OC)c1OC,> 100 µM,
C[P+](C)(C)c1ccccc1,> 100 µM,
NC(=O)c1cn(Cc2ccccc2)c(=O)n1Cc1ccccc1,> 100 µM,
CCOC(=O)C(C)(c1c(C)[nH]c2ccccc12)c1c(C)[nH]c2ccccc12,25.8 µM,
Cc1c(Cl)cccc1NC(=O)c1cccc([N+](=O)[O-])c1O,19.7 µM,
O=C1CC2CCN(C(=O)c3ccccc3)CC2CCN1 (centres undefined),> 100 µM,
N#CC(C#N)=C1CCCOc2c1ccc1ccccc21,> 100 µM,> 100 µM
CCc1nc(Cl)c(Cl)c(Cl)n1,> 100 µM,

SMILES,TGI,GI50
O=C1C=CC(=CC=C2C=CN(CCCCCCCCCCC(=O)NCCCCCCCCCCCC(=O)O)C=C2)C=C1,> 100 µM,
N#Cc1c(-c2ccco2)cc(-c2ccc(N)cc2)[nH]c1=O,> 100 µM,
C=CCC1(C)CCCCC1(O)CS(=O)c1ccccc1 (centres undefined),> 100 µM,
C1COCCSC2=C(SCCO1)SC(=C1SC3=C(SCCOCCOCCS3)S1)S2,> 100 µM,
COc1cc(/C=N\O[Si](C)(C)C(C)(C)C)ccc1O[Si](C)(C)C(C)(C)C,> 100 µM,
CC12CCC(=O)N1c1cccnc1N2 (centres undefined),> 100 µM,
COc1cc(/C=C/C(=O)C(C(=O)/C=C/c2ccc(OC(=O)CCNC34CC5CC(CC(C5)C3)C4)c(OC)c2)C(=O)CCNC23CC4CC(CC(C4)C2)C3)ccc1OC(=O)CCNC12CC3CC(CC(C3)C1)C2 (centres undefined),5.17 µM,1.96 µM
O=C1C2[C@@H](C(=O)N1c1ccc(Br)cc1)C13C(=CC2([N+](=O)[O-])[C@@H]2C(=O)N(c4ccc(Br)cc4)C(=O)[C@@H]21)c1ccccc1N3c1ccccc1 (some centres undefined),> 100 µM,
O=C1/C(=C/N2N=C(c3ccc4ccccc4c3)CC2c2ccccc2O)SC(=S)N1c1cccnc1 (centres undefined),8.19 µM,1.6 µM
CCOC(=O)C1=C(Nc2ccc(Br)cc2)OCC1=O,> 100 µM,
CCOc1ccc(N=Cc2c3ccccc3nc3ccccc23)cc1,> 100 µM,
Nc1ccc(C2=N/C(=C\c3cccc(N)c3)C(=O)O2)cc1,> 100 µM,
Cc1cc(NCCCCNc2ccnc3cc(Cl)ccc23)nc(Nc2ccc(C(=O)N3CCCCC3)cc2)n1,2.73 µM,1.24 µM
C1=NC(N(Cc2ccccc2)Cc2ccccc2)N(Cc2ccccc2)N1 (centres undefined),30.4 µM,
NC(=O)CNc1ccc([As]=[As]c2ccc(NCC(N)=O)cc2)cc1 (centres undefined),16.4 µM,3.04 µM

# System: SK-MEL-28 melanoma
# Assay: growth of human tumour cells (NCI), 48 h
SMILES,TGI,GI50
CCc1cccc(C)c1NC(=O)CC1C(=O)Nc2ccccc2S1=O (centres undefined),> 100 µM,
Cc1ccc(N2C(=O)N(c3ccc(C)cc3)C3(SC=NN3C)C2=O)cc1 (centres undefined),> 100 µM,
Cc1ccc2c(c1-c1ccccc1)C(=O)OC2,> 100 µM,
CCC[CH2][Sn]1([CH2]CCC)[O]CC(COc2c(Cl)cc(Cl)cc2Cl)[O]1 (centres undefined),2.82 µM,1.39 µM
NC(CCc1ncc(C(=O)O)s1)C(=O)O (centres undefined),> 100 µM,
CSc1ccc2c(cc1=O)[C@@H](NC(=O)c1cc(O)c(O)c(O)c1)CCc1cc(O)c(O)c(O)c1-2,94.8 µM,
COC(=O)C(=O)CC(=O)c1cccc(OC)c1,> 100 µM,
COc1cc2c3c(n(CCCN(CCO)CCO)c(=O)c2cc1OC)-c1cc2c(cc1C3=O)OCO2,26.6 µM,2.27 µM
COc1cc(-c2nnc3n2NC=C(C(=O)O)S3)cc(OC)c1OC,> 100 µM,
C[P+](C)(C)c1ccccc1,> 100 µM,
O=C1c2ccccc2C(=O)N1C/C=N/NS(=O)(=O)c1ccc(Br)cc1,> 100 µM,
COc1ccc2c(c1)C(C)Cc1c(ncnc1-n1cnc3ccccc31)N2C (centres undefined),22.9 µM,10.1 µM
NC(=O)c1cn(Cc2ccccc2)c(=O)n1Cc1ccccc1,> 100 µM,
CCOC(=O)C(C)(c1c(C)[nH]c2ccccc12)c1c(C)[nH]c2ccccc12,30.5 µM,
Cc1c(Cl)cccc1NC(=O)c1cccc([N+](=O)[O-])c1O,> 77 µM,
CC1COS(=O)O1 (centres undefined),> 100 µM,
O=C1CC2CCN(C(=O)c3ccccc3)CC2CCN1 (centres undefined),> 100 µM,
N#CC(C#N)=C1CCCOc2c1ccc1ccccc21,> 100 µM,> 100 µM
CCc1nc(Cl)c(Cl)c(Cl)n1,> 100 µM,

SMILES,TGI,GI50
O=C1C=CC(=CC=C2C=CN(CCCCCCCCCCC(=O)NCCCCCCCCCCCC(=O)O)C=C2)C=C1,> 100 µM,
N#Cc1c(-c2ccco2)cc(-c2ccc(N)cc2)[nH]c1=O,> 100 µM,
C=CCC1(C)CCCCC1(O)CS(=O)c1ccccc1 (centres undefined),> 100 µM,
C1COCCSC2=C(SCCO1)SC(=C1SC3=C(SCCOCCOCCS3)S1)S2,> 100 µM,
CC12CCC(=O)N1c1cccnc1N2 (centres undefined),> 100 µM,
COc1cc2c(cc1OC)C1Cc3cc(OC)c(OC)cc3N1CC2 (centres undefined),> 100 µM,
O=C(NNc1cnccn1)c1nc2cc(F)ccc2n2cccc12,> 100 µM,1.08 µM
C=C1C(=O)OC2C1CC(OC(C)=O)/C(C)=C/CCC1(C)OC21 (centres undefined),> 100 µM,
COc1cc(/C=C/C(=O)C(C(=O)/C=C/c2ccc(OC(=O)CCNC34CC5CC(CC(C5)C3)C4)c(OC)c2)C(=O)CCNC23CC4CC(CC(C4)C2)C3)ccc1OC(=O)CCNC12CC3CC(CC(C3)C1)C2 (centres undefined),4.28 µM,1.67 µM
O=C1C2[C@@H](C(=O)N1c1ccc(Br)cc1)C13C(=CC2([N+](=O)[O-])[C@@H]2C(=O)N(c4ccc(Br)cc4)C(=O)[C@@H]21)c1ccccc1N3c1ccccc1 (some centres undefined),> 100 µM,
CCOC(=O)C1=C(Nc2ccc(Br)cc2)OCC1=O,> 100 µM,
CCOc1ccc(N=Cc2c3ccccc3nc3ccccc23)cc1,> 100 µM,
Nc1ccc(C2=N/C(=C\c3cccc(N)c3)C(=O)O2)cc1,> 100 µM,
CC(=O)[CH-]C(=O)c1ccccc1.CC(=O)[CH-]C(=O)c1ccccc1.O=S(=O)([O-])c1cc([O-])c2c([O-])cc(S(=O)(=O)[O-])cc2c1.[Na+].[Ti+4],> 100 µM,> 100 µM
Cc1cc(NCCCCNc2ccnc3cc(Cl)ccc23)nc(Nc2ccc(C(=O)N3CCCCC3)cc2)n1,3.37 µM,1.68 µM
NCCN.O=C([O-])[O-].O=C([O-])[O-].[Co+3].[K+],> 100 µM,> 100 µM
C1=NC(N(Cc2ccccc2)Cc2ccccc2)N(Cc2ccccc2)N1 (centres undefined),37.2 µM,
NC(=O)CNc1ccc([As]=[As]c2ccc(NCC(N)=O)cc2)cc1 (centres undefined),17.6 µM,4.01 µM
